Measurements as given in ChEMBL document CHEMBL1671624, “Efficacy of quinoxaline-2-carboxylate 1,4-di-N-oxide derivatives in experimental tuberculosis” (Antimicrob Agents Chemother, 2008).
Values after ≈ are worked out from the molar mass of the structure shown.

Assays:
[1] = system: Mycobacterium tuberculosis; test: Antibacterial activity against Mycobacterium tuberculosis H37Rv under anaerobic conditions by luciferase based low oxygen recovery assay; assay type: functional
[2] = system: Mycobacterium tuberculosis; test: Antibacterial activity against Mycobacterium tuberculosis H37Rv under aerobic conditions; assay type: functional
[3] = system: Mycobacterium tuberculosis; test: Antibacterial activity against Mycobacterium tuberculosis H37Rv by microplate Alamar Blue assay; assay type: functional
[4] = system: Mycobacterium tuberculosis; test: Ratio of EC50 to MIC for Mycobacterium tuberculosis; assay type: functional
[5] = system: Mycobacterium tuberculosis; test: Antibacterial activity against Mycobacterium tuberculosis by microplate Alamar Blue assay; assay type: functional
[6] = system: Mycobacterium tuberculosis; test: Antibacterial activity against p-aminosalicylic acid-resistant Mycobacterium tuberculosis by microplate Alamar Blue assay; assay type: functional
[7] = Selectivity index, ratio of EC50 for african green monkey Vero cells to MIC for Mycobacterium tuberculosis; assay type: functional
[8] = system: Mycobacterium tuberculosis; test: Antimicrobial activity against Mycobacterium tuberculosis Erdman by microplate Alamar Blue assay; assay type: functional
Mus musculus [9] = test: Toxicity in C57BL/6 mouse assessed as acute reactions upto 1000 mg/kg, po; assay type: organism-based; parameters: dose 1000 mg/kg, route oral; conditions: in vivo
[10] = system: Mycobacterium tuberculosis; test: Antibacterial activity against Mycobacterium tuberculosis Erdman infected in gamma interferon gene knockout C57BL/6 mouse assessed as bacterial load in spleen at 300 mg/kg, po administered 18 days postinfection for 9 days measured on day 24 (Rvb= 6.57+/-0.17 log CFU); assay type: functional
[11] = system: Mycobacterium tuberculosis; test: Antibacterial activity against Mycobacterium tuberculosis Erdman infected in gamma interferon gene knockout C57BL/6 mouse assessed as bacterial load in lung at 300 mg/kg, po administered 18 days postinfection for 9 days measured on day 24 (Rvb= 4.47+/-0.12 log CFU); assay type: functional
Mus musculus [12] = test: Toxicity in C57BL/6 mouse assessed as acute adverse effects upto 1000 mg/kg, po; assay type: organism-based; parameters: dose 1000 mg/kg, route oral; conditions: in vivo
[13] = system: Mycobacterium tuberculosis; test: Antibacterial activity against Mycobacterium tuberculosis Erdman infected in gamma interferon gene knockout C57BL/6 mouse assessed as log reduction in bacterial load in lung at 25 mg/kg, po administered 18 days postinfection for 9 days measured on day 24 relative to control; assay type: functional
[14] = system: Mycobacterium tuberculosis; test: Antibacterial activity against Mycobacterium tuberculosis Erdman infected in gamma interferon gene knockout C57BL/6 mouse assessed as log reduction in bacterial load in lung at 100 mg/kg, po administered 18 days postinfection for 9 days measured on day 24 relative to control; assay type: functional
[15] = Cmax in C57BL/6 mouse serum after 15 to 30 mins at 100 to 200 mg/kg, po; assay type: ADME, organism-based; parameters: dose 100-200 mg/kg, route oral
Blood [16] = test: Drug level in C57BL/6 mouse blood at 25 mg/kg, po; assay type: ADME, organism-based; parameters: dose 25 mg/kg, route oral; conditions: in vivo
[17] = system: Mycobacterium tuberculosis; test: Antibacterial activity against Mycobacterium tuberculosis Erdman infected in gamma interferon gene knockout C57BL/6 mouse assessed as log reduction in bacterial load in lung at 300 mg/kg, po administered 18 days postinfection for 9 days measured on day 24 relative to control; assay type: functional
Mus musculus [18] = test: Toxicity in gamma interferon gene knockout C57BL/6 mouse infected with Mycobacterium tuberculosis Erdman assessed as with a hunched posture at 300 mg/kg, po administered 18 days postinfection for 9 days; assay type: organism-based; parameters: dose 300 mg/kg, route oral; conditions: in vivo
[19] = system: Mycobacterium tuberculosis; test: Antibacterial activity against Mycobacterium tuberculosis Erdman infected in gamma interferon gene knockout C57BL/6 mouse assessed as log reduction in bacterial load in spleen at 25 mg/kg, po administered 18 days postinfection for 9 days measured on day 24 relative to control; assay type: functional
Blood [20] = test: Drug level in C57BL/6 mouse blood at 300 mg/kg, po; assay type: ADME, organism-based; parameters: dose 300 mg/kg, route oral; conditions: in vivo
[21] = system: Mycobacterium tuberculosis; test: Antibacterial activity against Mycobacterium tuberculosis Erdman infected in gamma interferon gene knockout C57BL/6 mouse assessed as log reduction in bacterial load in spleen at 300 mg/kg, po administered 18 days postinfection for 9 days measured on day 24 relative to control; assay type: functional
[22] = system: Mycobacterium tuberculosis; test: Antibacterial activity against Mycobacterium tuberculosis Erdman infected in gamma interferon gene knockout C57BL/6 mouse assessed as log reduction in bacterial load in spleen at 100 mg/kg, po administered 18 days postinfection for 9 days measured on day 24 relative to control; assay type: functional
[23] = system: Mycobacterium tuberculosis; test: Antibacterial activity against Mycobacterium tuberculosis H37Rv assessed as compound concentration required for 99.9% bacterial killing by microplate Alamar Blue assay; assay type: functional
[24] = system: Mycobacterium tuberculosis; test: Ratio of […] for Mycobacterium tuberculosis H37Rv; assay type: functional
Blood [25] = test: Drug level in C57BL/6 mouse blood at 100 mg/kg, po; assay type: ADME, organism-based; parameters: dose 100 mg/kg, route oral; conditions: in vivo
[26] = Terminal half life in C57BL/6 mouse; assay type: ADME, organism-based; conditions: in vivo, read-out: beta t1/2 (converted)
Mus musculus [27] = test: Toxicity in gamma interferon gene knockout C57BL/6 mouse infected with Mycobacterium tuberculosis Erdman assessed as lethargic at 300 mg/kg, po administered 18 days postinfection for 9 days; assay type: organism-based; parameters: dose 300 mg/kg, route oral; conditions: in vivo
[28] = system: Mycobacterium tuberculosis; test: Antibacterial activity against Mycobacterium tuberculosis Erdman infected in gamma interferon gene knockout C57BL/6 mouse assessed as bacterial load in spleen at 25 mg/kg, po administered 18 days postinfection for 9 days measured on day 24 (Rvb= 6.57+/-0.17 log CFU); assay type: functional
[29] = system: Mycobacterium tuberculosis; test: Antibacterial activity against Mycobacterium tuberculosis Erdman infected in gamma interferon gene knockout C57BL/6 mouse assessed as bacterial load in lung at 25 mg/kg, po administered 18 days postinfection for 9 days measured on day 24 (Rvb= 4.47+/-0.12 log CFU); assay type: functional

O=[N+]([O-])c1cn2c(n1)OC[C@@H](OCc1ccc(OC(F)(F)F)cc1)C2 [PRETOMANID]
MIC [1]: 1.4 µg/mL (≈ 3.9 µM)
MIC [2]: 0.1 µg/mL (≈ 0.278 µM)

COC(=O)c1c(C)[n+]([O-])c2ccc(C)cc2[n+]1[O-]
MIC [3]: 3.13 µg/mL (≈ 12.6 µM)
Ratio [4]: 1.24
MIC [5]: 1.56 µg/mL (≈ 6.28 µM)
MIC [6]: 3.13 µg/mL (≈ 12.6 µM)
Selectivity Index [7]: >40.06

CCOC(=O)c1c(C)[n+]([O-])c2cc(C)c(C)cc2[n+]1[O-]
MIC [3]: ≤ 3.13 µg/mL
Ratio [4]: 0.46
MIC [5]: 6.25 µg/mL (≈ 22.6 µM)
Selectivity Index [7]: >10

Cc1c(C(=O)OCc2ccccc2)[n+]([O-])c2cc(Cl)ccc2[n+]1[O-]
MIC [8]: 0.1 µg/mL (≈ 0.29 µM)
Ratio [4]: 0.01
Activity (Mus musculus [9]): Non-toxic
log10cfu [10]: 6.62
MIC [5]: 0.1 µg/mL (≈ 0.29 µM)
log10cfu [11]: 7.21
Activity (Mus musculus [12]): Non-toxic
Selectivity Index [7]: 76.9

COCCOC(=O)c1c(C)[n+]([O-])c2cc(Cl)c(Cl)cc2[n+]1[O-]
MIC [8]: 0.39 µg/mL (≈ 1.12 µM)
MIC [3]: ≤ 0.2 µg/mL
Ratio [4]: >4
Activity (Mus musculus [9]): Non-toxic
log10cfu [10]: 7.18
MIC [5]: 0.39 µg/mL (≈ 1.12 µM)
MIC [6]: 0.78 µg/mL (≈ 2.25 µM)
log10cfu [11]: 8.73
Activity (Mus musculus [12]): Non-toxic
Selectivity Index [7]: 11.54

CCOC(=O)c1c(C)[n+]([O-])c2ccc(Cl)cc2[n+]1[O-]
log10cfu [13]: 0.99
log10cfu [14]: 2.03
MIC [8]: 0.78 µg/mL (≈ 2.76 µM)
MIC [1]: 0.42 µg/mL (≈ 1.49 µM)
MIC [3]: 0.2 µg/mL (≈ 0.708 µM)
MIC [2]: 0.24 µg/mL (≈ 0.849 µM)
Ratio [4]: 2.3
Cmax [15]: 5000 ng/mL
Activity (Mus musculus [9]): Non-toxic
Drug uptake (Blood [16]): 3 µg/mL
log10cfu [17]: 5.58
Activity (Mus musculus [18]): Toxic
log10cfu [19]: 1.61
log10cfu [10]: 3.95
Drug uptake (Blood [20]): 9 µg/mL
MIC [5]: 0.2 µg/mL (≈ 0.708 µM)
log10cfu [21]: 5.51
log10cfu [22]: 2.72
MBC [23]: 2.5 µg/mL (≈ 8.84 µM)
log10cfu [11]: 4.55
Activity (Mus musculus [12]): Non-toxic
Ratio [24]: 4.2
Drug uptake (Blood [25]): 6 µg/mL
half-life [26]: 4 h
Selectivity Index [7]: >50
Activity (Mus musculus [27]): Toxic

NNC(=O)c1ccncc1 [ISONIAZID]
log10cfu [13]: 3.33
log10cfu [19]: 5.04
log10cfu [28]: 2.2
log10cfu [29]: 4.47

CCOC(=O)c1c(C)[n+]([O-])c2ccc(C)cc2[n+]1[O-]
MIC [3]: 3.13 µg/mL (≈ 11.9 µM)
Ratio [4]: 1.4
MIC [5]: 1.56 µg/mL (≈ 5.95 µM)
MIC [6]: 3.13 µg/mL (≈ 11.9 µM)
Selectivity Index [7]: >40.06

O=C(Nc1ccc([N+](=O)[O-])cc1Cl)c1cc(Cl)ccc1O [NICLOSAMIDE]
MIC [1]: 0.32 µg/mL (≈ 0.978 µM)
MIC [2]: 0.28 µg/mL (≈ 0.856 µM)

Cc1c(C(=O)OCc2ccccc2)[n+]([O-])c2ccccc2[n+]1[O-]
MIC [8]: 0.1 µg/mL (≈ 0.322 µM)
MIC [3]: 0.2 µg/mL (≈ 0.645 µM)
Ratio [4]: 1.5
Activity (Mus musculus [9]): Non-toxic
log10cfu [10]: 6.96
MIC [5]: 0.1 µg/mL (≈ 0.322 µM)
MIC [6]: 0.2 µg/mL (≈ 0.645 µM)
log10cfu [11]: 7.41
Activity (Mus musculus [12]): Non-toxic
Selectivity Index [7]: 470

CCOC(=O)c1c(C)[n+]([O-])c2cc(Cl)c(Cl)cc2[n+]1[O-]
MIC [8]: 0.39 µg/mL (≈ 1.23 µM)
MIC [3]: 0.2 µg/mL (≈ 0.631 µM)
Ratio [4]: >3.15
Activity (Mus musculus [9]): Non-toxic
log10cfu [10]: 6.75
MIC [5]: 0.2 µg/mL (≈ 0.631 µM)
log10cfu [11]: 7.64
Activity (Mus musculus [12]): Non-toxic
Selectivity Index [7]: >20

COC(=O)c1c(C)[n+]([O-])c2cc(C)c(C)cc2[n+]1[O-]
MIC [3]: 3.13 µg/mL (≈ 11.9 µM)
Ratio [4]: 0.52
MIC [5]: 3.13 µg/mL (≈ 11.9 µM)
MIC [6]: 3.13 µg/mL (≈ 11.9 µM)
Selectivity Index [7]: >20

Cc1ccc2c(c1)[n+]([O-])c(C(=O)OCc1ccccc1)c(C)[n+]2[O-]
MIC [8]: 0.78 µg/mL (≈ 2.4 µM)
MIC [3]: 0.39 µg/mL (≈ 1.2 µM)
Ratio [4]: 2.9
Activity (Mus musculus [9]): Non-toxic
log10cfu [10]: 6.63
MIC [5]: 0.39 µg/mL (≈ 1.2 µM)
MIC [6]: 0.78 µg/mL (≈ 2.4 µM)
log10cfu [11]: 7.17
Activity (Mus musculus [12]): Non-toxic
Selectivity Index [7]: 143.7

CCOC(=O)c1c(C)[n+]([O-])c2ccccc2[n+]1[O-]
MIC [3]: 1.56 µg/mL (≈ 6.28 µM)
Ratio [4]: 0.56
MIC [5]: 1.56 µg/mL (≈ 6.28 µM)
Selectivity Index [7]: 30.13

Cc1c(C(=O)OCc2ccccc2)[n+]([O-])c2cc(Cl)c(Cl)cc2[n+]1[O-]
MIC [8]: 0.1 µg/mL (≈ 0.264 µM)
MIC [3]: 0.39 µg/mL (≈ 1.03 µM)
Ratio [4]: 14.35
Activity (Mus musculus [9]): Non-toxic
log10cfu [10]: 7.17
MIC [5]: 0.2 µg/mL (≈ 0.527 µM)
log10cfu [11]: 8.07
Activity (Mus musculus [12]): Non-toxic
Selectivity Index [7]: 29
